Eleven molecules from patent US4546096A, “Anticholinergic glucuronides and antiperspirant use thereof” (Repligen Corporation, priority 1984, dated 1985) can be followed below.

For data set [1], the target named is T1, bovine liver β-glucuronidase (Bos taurus, UniProt A3KMY8).
T1 sequence (A3KMY8 24-652): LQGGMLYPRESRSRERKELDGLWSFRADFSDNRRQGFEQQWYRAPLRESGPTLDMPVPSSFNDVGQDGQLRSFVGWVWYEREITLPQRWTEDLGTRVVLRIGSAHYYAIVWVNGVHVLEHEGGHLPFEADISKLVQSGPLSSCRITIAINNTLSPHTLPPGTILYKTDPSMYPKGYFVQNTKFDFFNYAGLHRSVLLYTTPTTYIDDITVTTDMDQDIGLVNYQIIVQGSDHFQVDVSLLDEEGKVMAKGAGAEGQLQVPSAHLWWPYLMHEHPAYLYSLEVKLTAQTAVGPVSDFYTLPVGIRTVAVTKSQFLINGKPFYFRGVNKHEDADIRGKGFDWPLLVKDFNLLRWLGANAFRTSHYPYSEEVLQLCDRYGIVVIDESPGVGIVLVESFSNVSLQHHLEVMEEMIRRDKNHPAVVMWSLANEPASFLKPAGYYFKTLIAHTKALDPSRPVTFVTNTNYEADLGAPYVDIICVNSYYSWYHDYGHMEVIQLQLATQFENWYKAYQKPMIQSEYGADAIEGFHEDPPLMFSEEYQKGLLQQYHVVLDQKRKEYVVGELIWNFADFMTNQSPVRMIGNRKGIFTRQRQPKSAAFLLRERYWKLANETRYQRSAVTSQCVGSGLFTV
Put plainly: Hydrolysis of glucuronides by bovine liver β-glucuronidase. In kind it is biochemical. As to conditions: bovine liver enzyme, pH 5.0; initial rate; enzyme diluted so that PGA rates are equivalent.

The target in data set [2] is T2, human sweat β-glucuronidase (Homo sapiens, UniProt P08236).
T2 sequence (P08236 23-651): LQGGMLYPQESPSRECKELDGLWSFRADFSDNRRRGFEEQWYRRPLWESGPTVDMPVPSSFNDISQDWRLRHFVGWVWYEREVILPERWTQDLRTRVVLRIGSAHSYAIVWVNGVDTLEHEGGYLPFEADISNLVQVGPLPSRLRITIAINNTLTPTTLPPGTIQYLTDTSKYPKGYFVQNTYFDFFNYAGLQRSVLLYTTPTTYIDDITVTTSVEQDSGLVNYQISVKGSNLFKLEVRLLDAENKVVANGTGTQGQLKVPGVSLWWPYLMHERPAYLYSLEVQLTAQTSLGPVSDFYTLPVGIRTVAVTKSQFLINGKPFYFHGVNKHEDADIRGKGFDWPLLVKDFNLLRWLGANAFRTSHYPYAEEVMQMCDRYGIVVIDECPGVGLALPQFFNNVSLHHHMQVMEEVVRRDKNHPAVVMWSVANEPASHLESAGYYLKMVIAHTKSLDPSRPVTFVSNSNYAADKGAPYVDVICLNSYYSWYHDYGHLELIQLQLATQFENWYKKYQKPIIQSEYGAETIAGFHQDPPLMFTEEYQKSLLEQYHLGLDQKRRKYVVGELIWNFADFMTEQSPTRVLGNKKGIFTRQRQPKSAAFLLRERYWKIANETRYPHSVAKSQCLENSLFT
Briefly: Hydrolysis of model glucuronides by human sweat glucuronidase. The note with it: for Hydrolysis of Glucuronides: dialyzed human sweat, initial rate, enzyme diluted so that PGA rates are equivalent. In kind it is biochemical. The protocol:
Sweat was obtained from human volunteers by collection from the axilla during high temperature (>41° C.) in a sauna. The sweat was clarified by centrifugation at 20,000 g for 30 min. This clarified sweat was then either utilized directly in hydrolysis studies or dialyzed against 100 mM NaCl, 50 mM sodium acetate, pH 5.0 prior to use. […] Most of the data presented herein was generated with dialyzed preparations.
β-glucuronidase activity was assayed in the sweat by hydrolysis of phenolphthalein glucuronide. Briefly, this assay was carried out as follows: to an aliquot of undialyzed sweat was added an equal volume of buffer comprising 100 mM NaCl, 100 mM sodium acetate, pH 5.0 (this step was unnecessary when assaying dialyzed sweat) followed by 10 μl of a 100 mg/ml phenolphthalein glucuronide solution (Sigma Chemical, St. Louis, Mo.). The reaction mixture was then incubated at 37° C. After 30 min an aliquot of the reaction mixture was added to a five-fold excess of a 0.2 M glycine buffer, pH 10.4 and the absorbance wa determined at 540 nm. The activity was determined by comparison to a known amount of E. coli β-glucuronidase (Sigma, Type VII) run under standard conditions.
A variety of glucuronides were synthesized and tested for their ability to be hydrolyzed by human sweat glucuronidase. […] These hydrolysis reactions were all carried out under similar conditions, and the extent of hydrolysis was determined at the various time points by HPLC analysis of the reaction mixture.
Generally, dialyzed preparations of sweat were used for the reasons discussed earlier. […] A typical experiment was done by bringing the enzyme solution (50-100 U/ml) to 0.01 to 0.05% in the glucuronide to be tested. A zero time aliquot was withdrawn and stored frozen; the remaining reaction mixture was incubated at 37° C. Aliquots were taken at various time points for rate determinations. These aliquots were stored at -20° C. until analysis by HPLC.
High pressure liquid chromatography of the aliquots drawn from the hydrolysis reactions allowed the separation of the aglycon from the glucuronide in all cases. The nmoles released at any given time were calculated from the absorption at 254 nm and the known extinction coefficient of the compound. Rates are given as initial rates which are determined by plotting nmoles aglycon vs. time.

A further data set deals with E. coli β-glucuronidase (Escherichia coli, UniProt P05804). Briefly: Hydrolysis of glucuronides by E. coli β-glucuronidase. It counts as biochemical. As to conditions: pH 6.8; for Hydrolysis of Glucuronides: E. coli enzyme, initial rate, enzyme diluted so that PGA rates are equivalent.
The next data set has as its system rabbit eye pupil. Put plainly: Mydriasis assay (rabbit eye pupil diameter). In kind it is in vivo. As to conditions: for Change in Pupil Diameter as a function of time: error ± 0.5 mm; for mydriatic potency compared to the parent drugs: compared to parent drugs tropicamide and scopolamine. Here is the method:
The rabbit eye pupil diameter was measured with a clear plastic ruler after exposing the eye to 50 W light at a distance of 6 in. Exposure to light contracts the pupil to approximately 3 mm diameter.
The addition of the compounds to be tested is done in a maximum volume of 150 μl, in 50 mM NaPO4, pH 6.8, 100 mM NaCl. The sample was applied in the upper corner of the eye and was allowed to completely cover the cornea after each addition. Pupil dilation was measured at 3 separate intervals following the procedure outlined above. Buffer controls were run in one eye and the anticholinergic in the other.

The nature of data set [3]: Solubility of aglycon in the enzymatic reaction mixture. In kind it is physicochemical. The note with it: aqueous tris hydrochloride reaction mixture. Here is the method:
Due to the low solubility of this compound, excess solid material is added to the reaction mixture so that a saturated solution of aglycon is maintained throughout the reaction. The glucuronide is isolated by HPLC with the reversed phase system described in Example 2. It is characterized by hydrolysis with excess E. coli β-glucuronidase (1000 U/ml, pH 6.8) (Sigma, Type […]) for 1 hr at 37° C. which quantitatively releases the aglycon as assayed by HPLC.
The glucuronide of scopolamine p-hydroxybenzoate is synthesized with uridine 5'-diphosphoglucuronic acid transferase by first removing all or substantially all of the esterase activity from liver microsomes. These esterases are removed since they will hydrolyze the aglycon. This operation can be done by washing the liver microsomes in a suitable buffer, as described herein, or by other equivalent washing means known to persons in this art. Advantageously, an esterase inhibitor can be used to supplement the washing of the microsomes. For example, a competitive inhibitor of the esterases such as lysine ethyl ester, and the like, or a suicide substrate such as phenylmethylsulfonyl fluoride, and the like, can be used. […] The glucuronide is characterized by hydrolysis with excess E. coli β-glucuronidase (100 U/ml, pH 6.8) (Sigma, Type VII) for 1 hr at 37° C. which quantitatively releases the aglycon as assayed by HPLC.

[4] abbreviates: levels 100-fold greater than required to effect a strong mydriatic response with the aglycon.

Molecules are shown by their SMILES.

Sequence of E. coli β-glucuronidase (P05804 whole entry): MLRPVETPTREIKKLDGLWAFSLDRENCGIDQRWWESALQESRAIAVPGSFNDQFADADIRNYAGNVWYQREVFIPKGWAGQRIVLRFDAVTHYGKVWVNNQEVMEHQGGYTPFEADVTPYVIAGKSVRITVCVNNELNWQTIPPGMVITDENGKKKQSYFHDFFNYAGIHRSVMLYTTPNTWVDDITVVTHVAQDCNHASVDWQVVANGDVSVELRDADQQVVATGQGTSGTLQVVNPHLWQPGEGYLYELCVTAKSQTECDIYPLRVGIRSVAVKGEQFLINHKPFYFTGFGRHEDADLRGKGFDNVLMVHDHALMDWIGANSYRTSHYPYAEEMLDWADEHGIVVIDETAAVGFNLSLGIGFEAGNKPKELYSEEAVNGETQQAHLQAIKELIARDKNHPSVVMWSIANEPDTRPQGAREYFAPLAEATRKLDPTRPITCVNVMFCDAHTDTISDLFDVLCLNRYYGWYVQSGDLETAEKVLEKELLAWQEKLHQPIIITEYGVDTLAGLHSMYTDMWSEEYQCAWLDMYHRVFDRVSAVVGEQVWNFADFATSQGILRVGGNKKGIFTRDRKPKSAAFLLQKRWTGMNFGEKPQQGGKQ

In the case of `O=C1OC(c2ccc(O)cc2)(c2ccc(O[C@@H]3O[C@H](C(=O)O)[C@@H](O)[C@H](O)[C@H]3O)cc2)c2ccccc21` (stereo partly shown) [Phenolphthalein glucuronide, phenolphthalein glucuronide], the “Hydrolysis of Glucuronides” value (in data set [1]; in data set [2] (pH 5.0); on E. coli β-glucuronidase) was 200 nmoles/hour/100 units throughout.

With `CN1C2CC(OC(=O)C(COC3OC(C(=O)O)C(O)C(O)C3O)c3ccccc3)CC1C1OC12` [Scopolamine glucuronide, scopolamine O-β-D-glucuronide], the “Hydrolysis of Glucuronides” value in data set [1] was 25 nmoles/hour/100 units; in data set [2] (pH 5.0), < 0.5 nmoles/hour/100 units; on E. coli β-glucuronidase it was 60 nmoles/hour/100 units. Also, the entries for the “Hydrolysis by human sweat enzyme (in words)” value in data set [2] (pH 5.0) and in data set [2] (pH 6.8) were “no scopolamine could be detected” and “no hydrolysis”, respectively. Further, the “Hydrolysis by E. coli enzyme (in words)” value on E. coli β-glucuronidase was “lower, but significant, activity”.

For `CN1C2CC(OC(=O)C(COC(=O)c3ccc(OC4OC(C(=O)O)C(O)C(O)C4O)cc3)c3ccccc3)CC1C1OC12` [Scopolamine p-Hydroxybenzoy-O-β-D-Glucuronic Acid], the “Hydrolysis of Glucuronides” value in data set [2] (pH 5.0) is 40 nmoles/hour/100 units. Also, the “Change in Pupil Diameter as a function of time” value (shortened to “Change in Pupil Diameter”) with rabbit eye pupil (11.4 ug applied, in 45 min) is given as 0 mm. Also, the “mydriatic response (in words)” value with rabbit eye pupil (setting [4]) is “No mydriatic response”.

With `CN1C2CC(OC(=O)C(COC(=O)c3ccc(O)cc3)c3ccccc3)CC1C1OC12` (stereo not shown) [Scopolamine p-hydroxybenzoate, Scopolamine p-Hydroxybenzoate], the solubility entry in data set [3] is “low”. The “mydriatic response (in words)” value in the data set on rabbit eye pupil (0.1 μg) is “sufficient for a response”. In the data set on rabbit eye pupil (0.1 ug applied, in 15 min), the “Change in Pupil Diameter” value came out at 7 mm. Besides, in the data set on rabbit eye pupil, the “mydriatic potency compared to the parent drugs” value is given as “potent mydriatic agents”.

For the molecule `CN1[C@@H]2C[C@@H](OC(=O)[C@H](CO)c3ccccc3)C[C@H]1[C@@H]1O[C@@H]12` [Scopolamine], in the data set with rabbit eye pupil (0.6 μg), the “mydriatic response (in words)” value is on record as “nonmydriatic”. In addition, the “Change in Pupil Diameter” value in the data set with rabbit eye pupil (0.6 ug applied, in 15 min) is 0 mm; in the data set with rabbit eye pupil (6 ug applied, in 15 min) it was 6 mm; in the data set on rabbit eye pupil (60 ug applied, in 10 min) it was 6 mm.

Take `COC(=O)C(CO[C@@H]1O[C@H](C(=O)O)[C@@H](O)[C@H](O)[C@H]1O)c1ccccc1` (stereo partly drawn) [Tropic acid methyl ester glucuronide, Tropic Acid Methyl Ester-O-β-D-Glucuronide]: the “Hydrolysis of Glucuronides” value in data set [2] (pH 5.0) is 2.6 nmoles/hour/100 units.

For `CCN(Cc1ccncc1)C(=O)C(CO[C@@H]1O[C@H](C(=O)O)[C@@H](O)[C@H](O)[C@H]1O)c1ccccc1` (stereo partly drawn) [Tropicamide glucuronide, tropicamide O-β-D-glucuronide], the “Hydrolysis of Glucuronides” value in data set [1] was 24 nmoles/hour/100 units; in data set [2] (pH 5.0) it was 1.6 nmoles/hour/100 units; on E. coli β-glucuronidase it was > 150 nmoles/hour/100 units. In addition, the “Hydrolysis by human sweat enzyme (in words)” value in data set [2] (pH 5.0) was “Trace amounts”; in data set [2] (pH 6.8), “no hydrolysis”. The “Change in Pupil Diameter” value with rabbit eye pupil (600 ug applied, in 30 min) worked out at 0 mm. In addition, the “Hydrolysis by E. coli enzyme (in words)” value at E. coli β-glucuronidase is listed as “rapidly hydrolyzes”.

Take `CCN(Cc1ccncc1)C(=O)C(COC(=O)c1ccc(O[C@@H]2O[C@H](C(=O)O)[C@@H](O)[C@H](O)[C@H]2O)cc1)c1ccccc1` (stereo partly drawn) [Tropicamide p-Hydroxybenzoyl-O-β-D-Glucuronic Acid]: in data set [2] (pH 5.0), the “Hydrolysis of Glucuronides” value amounted to 36 nmoles/hour/100 units. For the same molecule, in the data set on rabbit eye pupil (600 ug applied, in 25 min), the “Change in Pupil Diameter” value is 0 mm. In addition, in the data set with rabbit eye pupil (setting [4]), the “mydriatic response (in words)” value is on record as “No mydriatic response”.

`CCN(Cc1ccncc1)C(=O)C(COC(=O)c1ccc(O)cc1)c1ccccc1` (stereo not shown) [Tropicamide p-hydroxybenzoate, tropicamide p-hydroxybenzoate]: the solubility result in data set [3] was “low”. For the same molecule, in the data set with rabbit eye pupil (5.5 μg), the “mydriatic response (in words)” value is given as “clearly mydriatic”. Also, in the data set with rabbit eye pupil (5.5 ug applied, in 35 min), the “Change in Pupil Diameter” value is 4 mm. Further, the “mydriatic potency compared to the parent drugs” value in the data set on rabbit eye pupil is “potent mydriatic agents”.

Consider `CCN(Cc1ccncc1)C(=O)C(CO)c1ccccc1` (stereo not shown) [Tropicamide], for which, in the data set with rabbit eye pupil (20 μg), the “mydriatic response (in words)” value is “weak response”.

For `COC(=O)Cc1ccc(O[C@@H]2O[C@H](C(=O)O)[C@@H](O)[C@H](O)[C@H]2O)cc1` [p-Hydroxyphenylacetic Acid Methyl Ester-O-β-D-Glucuronide], the “Hydrolysis of Glucuronides” value in data set [2] (pH 5.0) is 37 nmoles/hour/100 units.
